Results: US10189836B2, “Therapeutic compounds, compositions and methods of use thereof” (Genentech, Inc., priority 2015, dated 2019)

What was measured:
[1] = molecular target: isolated recombinant JAK2 kinase domain (Homo sapiens (Human), UniProt O60674); experiment: JAK2 enzyme assay (Caliper LabChip, Ki); assay type: biochemical; conditions: isolated recombinant JAK2 kinase domain, 0.2 nM enzyme, ATP 25 μM
[2] = molecular target: isolated recombinant JAK1 kinase domain (Homo sapiens (Human), UniProt P23458); experiment: JAK1 enzyme assay (Caliper LabChip, Ki); assay type: biochemical; conditions: isolated recombinant JAK1 kinase domain, 1.5 nM enzyme, ATP 25 μM
Chain of isolated recombinant JAK1 kinase domain (P23458 875-1153): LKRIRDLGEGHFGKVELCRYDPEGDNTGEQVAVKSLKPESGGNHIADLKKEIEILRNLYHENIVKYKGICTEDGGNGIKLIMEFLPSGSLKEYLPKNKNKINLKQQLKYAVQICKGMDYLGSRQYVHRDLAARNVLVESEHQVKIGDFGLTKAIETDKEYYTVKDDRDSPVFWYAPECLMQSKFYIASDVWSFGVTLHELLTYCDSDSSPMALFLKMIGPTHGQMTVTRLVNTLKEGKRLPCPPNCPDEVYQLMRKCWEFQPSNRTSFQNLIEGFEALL

Chain of isolated recombinant JAK2 kinase domain (O60674 849-1124): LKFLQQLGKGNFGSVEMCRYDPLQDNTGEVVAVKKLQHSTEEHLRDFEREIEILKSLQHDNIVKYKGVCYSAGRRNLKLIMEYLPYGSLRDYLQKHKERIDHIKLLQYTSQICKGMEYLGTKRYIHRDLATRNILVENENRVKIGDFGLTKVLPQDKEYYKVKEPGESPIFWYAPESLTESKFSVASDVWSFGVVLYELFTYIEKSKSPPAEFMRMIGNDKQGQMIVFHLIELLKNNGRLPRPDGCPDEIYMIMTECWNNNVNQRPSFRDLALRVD

Row | Compound | Ki [1] [nM] | Ki [2] [nM]
1 | CN1CCN(C(=O)Cn2cc(Nc3nc4c(N5CC6CCC(C5)N6CC5(CS(C)(=O)=O)CC5)cccn4n3)cn2)CC1 [Example 109, 1-(4-methylpiperazin-1-yl)-2-[4-[[8-[8-([1-(methylsulfonylmethyl)cyclopropyl]methyl]-3,8-diazabicyclo[3.2.1]octan-3-yl]-[1,2,4]triazolo[1,5-a]pyridin-2-yl]amino]pyrazol-1-yl]ethanone] | 7 | 4.8
2 | CN1CCN(C(=O)Cn2cc(Nc3nc4c(N5CC6CCC(C5)N6C(=O)NCC(F)(F)F)cccn4n3)cn2)CC1 [Example 110, 3-[2-[[1-[2-(4-methylpiperazin-1-yl)-2-oxo-ethyl]pyrazol-4-yl]amino]-[1,2,4]triazolo[1,5-a]pyridin-8-yl]-N-(2,2,2-trifluoroethyl)-3,8-diazabicyclo[3.2.1]octane-8-carboxamide] | 3.4 | 0.9
3 | CN1CCN(C(=O)Cn2cc(Nc3nc4c(N5CC6CCC(C5)N6S(=O)(=O)c5ccccc5Cl)cccn4n3)cn2)CC1 [Example 111, 2-[4-[[8-[8-(2-chlorophenyl)sulfonyl-3,8-diazabicyclo[3.2.1]octan-3-yl]-[1,2,4]triazolo[1,5-a]pyridin-2-yl]amino]pyrazol-1-yl]-1-(4-methylpiperazin-1-yl)ethanone] | 0.5 | 0.5
4 | CN1CCN(C(=O)Cn2cc(Nc3nc4c(N5CC6CCC(C5)N6S(=O)(=O)c5cccs5)cccn4n3)cn2)CC1 [Example 112, 1-(4-methylpiperazin-1-yl)-2-[4-[[8-[8-(2-thienylsulfonyl)-3,8-diazabicyclo[3.2.1]octan-3-yl]-[1,2,4]triazolo[1,5-a]pyridin-2-yl]amino]pyrazol-1-yl]ethanone] | 0.7 | 0.5
5 | CN1CCN(C(=O)Cn2cc(Nc3nc4c(N5CC6CCC(C5)N6c5ccc(Cl)cc5)cccn4n3)cn2)CC1 [Example 113, 2-[4-[[8-[8-(4-chlorophenyl)-3,8-diazabicyclo[3.2.1]octan-3-yl]-[1,2,4]triazolo[1,5-a]pyridin-2-yl]amino]pyrazol-1-yl]-1-(4-methylpiperazin-1-yl)ethanone] | 0.3 | 0.2
6 | CN1CCN(C(=O)Cn2cc(Nc3nc4c(N5CC6CCC(C5)N6C(=O)c5ccccc5Cl)cccn4n3)cn2)CC1 [Example 114] | 4.8 | 1.7
7 | CSc1ccccc1C(=O)N1C2CCC1CN(c1cccn3nc(Nc4cnn(CC(=O)N5CCN(C)CC5)c4)nc13)C2 [Example 115] | 2.1 | 1
8 | CN1CCN(C(=O)Cn2cc(Nc3nc4c(N5CC6CCC(C5)N6C(=O)C5(C#N)CCC5)cccn4n3)cn2)CC1 [Example 116, 1-[3-[2-[[1-[2-(4-methylpiperazin-1-yl)-2-oxo-ethyl]pyrazol-4-yl]amino]-[1,2,4]triazolo[1,5-a]pyridin-8-yl]-3,8-diazabicyclo[3.2.1]octane-8-carbonyl]cyclobutane-carbonitrile] | 3.5 | 2.5
9 | CCc1cnn([C@@]2(CC#N)[C@@H]3CC[C@H]2CN(c2cccn4nc(Nc5cnn(CC(=O)N6CCN(C)CC6)c5)nc24)C3)c1 [Example 117, 2-[(1R,5S)-8-(4-ethylpyrazol-1-yl)-3-[2-[[1-[2-(4-methylpiperazin-1-yl)-2-oxo-ethyl]pyrazol-4-yl]amino]-[1,2,4]triazolo[1,5-a]pyridin-8-yl]-3-azabicyclo[3.2.1]octan-8-yl]acetonitrile] | 24.2 | 18.3
10 | CN1CCN(C(=O)Cn2cc(Nc3nc4c(N5CC6CCC(C5)C6=CC#N)cccn4n3)cn2)CC1 [Example 118, 2-[3-[2-[[1-[2-(4-methylpiperazin-1-yl)-2-oxo-ethyl]pyrazol-4-yl]amino]-[1,2,4]triazolo[1,5-a]pyridin-8-yl]-3-azabicyclo[3.2.1]octan-8-ylidene]acetonitrile] | 1.5 | 0.5
11 | N#CC1(CNC2CCN(C(=O)Cn3cc(Nc4nc5c(N6CC7CCC(C6)N7C(=O)N6CC(C(F)(F)F)C6)cccn5n4)cn3)CC2)CC1 [Example 119, 1-[[[1-[2-[4-[[8-[8-[3-(trifluoromethyl)azetidine-1-carbonyl]-3,8-diazabicyclo[3.2.1]octan-3-yl]-[1,2,4]triazolo[1,5-a]pyridin-2-yl]amino]pyrazol-1-yl]acetyl]-4-piperidyl]amino]methyl] cyclopropanecarbonitrile] | 0.8 | 0.8
12 | CC(F)(F)CNC1CCN(C(=O)Cn2cc(Nc3nc4c(N5CC6CCC(C5)N6C(=O)N5CC(C(F)(F)F)C5)cccn4n3)cn2)CC1 [Example 120, 1-[4-(2,2-difluoropropylamino)-1-piperidyl]-2-[4-[[8-[8-[3-(trifluoromethyl)azetidine-1-carbonyl]-3,8-diazabicyclo[3.2.1]octan-3-yl]-[1,2,4]triazolo[1,5-a]pyridin-2-yl]amino]pyrazol-1-yl]ethanone] | 0.7 | 0.6
13 | O=C(Cn1cc(Nc2nc3c(N4CC5CCC(C4)N5C(=O)N4CC(C(F)(F)F)C4)cccn3n2)cn1)N1CCC(CN2CCOCC2)CC1 [Example 121, 1-[4-(morpholinomethyl)-1-piperidyl]-2-[4-[[8-[8-[3-(trifluoromethyl)azetidine-1-carbonyl]-3,8-diazabicyclo[3.2.1]octan-3-yl]-[1,2,4]triazolo[1,5-a]pyridin-2-yl]amino]pyrazol-1-yl]ethanone] | 0.7 | 0.7
14 | CN1CCN(C(=O)Cn2cc(Nc3nc4c(N5CC6CCCC(C5)N6C(=O)N5CC(C(F)(F)F)C5)cccn4n3)cn2)CC1 [Example 122, 1-(4-methylpiperazin-1-yl)-2-[4-[[8-[9-[3-(trifluoromethyl)azetidine-1-carbonyl]-3,9-diazabicyclo[3.3.1]nonan-3-yl]-[1,2,4]triazolo[1,5-a]pyridin-2-yl]amino]pyrazol-1-yl]ethanone] | 0.3 | 0.4
15 | CC(C(=O)N1CCN(C)CC1)n1cc(Nc2nc3c(N4CC5CCC(C4)N5C(=O)C4CC(C(F)(F)F)C4)cccn3n2)cn1 (stereo not shown) [Example 123, 1-(4-methylpiperazin-1-yl)-2-[4-[[8-[8-(3-(trifluoromethyl)-cyclobutanecarbonyl]-3,8-diazabicyclo[3.2.1]octan-3-yl]-[1,2,4]triazolo[1,5-a]pyridin-2-yl]amino]pyrazol-1-yl]propan-1-one] | 0.5 | 0.5
16 | CC(C(=O)N1CCN(C)CC1)n1cc(Nc2nc3c(N4CC5CCC(C4)N5C(=O)C4CC(C(F)(F)F)C4)cccn3n2)cn1 (stereo not shown) [Example 124, 1-(4-methylpiperazin-1-yl)-2-[4-[[8-[8-(3-(trifluoromethyl)-cyclobutanecarbonyl]-3,8-diazabicyclo[3.2.1]octan-3-yl]-[1,2,4]triazolo[1,5-a]pyridin-2-yl]amino]pyrazol-1-yl]propan-1-one] | 3.7 | 1.9
17 | CC(C(=O)N1CCN(C)CC1)n1cc(Nc2nc3c(N4CC5CCC(C4)N5C(=O)C4CC(C(F)(F)F)C4)cccn3n2)cn1 (stereo not shown) [Example 125, 1-(4-methylpiperazin-1-yl)-2-[4-[[8-[8-(3-(trifluoromethyl)-cyclobutanecarbonyl]-3,8-diazabicyclo[3.2.1]octan-3-yl]-[1,2,4]triazolo[1,5-a]pyridin-2-yl]amino]pyrazol-1-yl]propan-1-one] | 0.4 | 0.6
18 | CC(C(=O)N1CCN(C)CC1)n1cc(Nc2nc3c(N4CC5CCC(C4)N5C(=O)C4CC(C(F)(F)F)C4)cccn3n2)cn1 (stereo not shown) [Example 126, 1-(4-methylpiperazin-1-yl)-2-[4-[[8-[8-(3-(trifluoromethyl)-cyclobutanecarbonyl]-3,8-diazabicyclo[3.2.1]octan-3-yl]-[1,2,4]triazolo[1,5-a]pyridin-2-yl]amino]pyrazol-1-yl]propan-1-one] | 1.6 | 2.5
19 | CN1CCN(C(=O)Cn2cc(Nc3nc4c(N5C[C@H]6CC[C@@H](C5)[C@H]6N(C)CCC(F)(F)F)cccn4n3)cn2)CC1 [Example 127, 1-(4-methylpiperazin-1-yl)-2-[4-[[8-[(1S,5R)-8-[methyl(3,3,3-trifluoropropyl)amino]-3-azabicyclo[3.2.1]octan-3-yl]-[1,2,4]triazolo[1,5-a]pyridin-2-yl]amino]pyrazol-1-yl]ethanone] | 11.5 | 4.6
20 | CN1CCN(C(=O)Cn2cc(Nc3nc4c(N5C[C@H]6CC[C@@H](C5)[C@H]6OCc5ccc(C#N)cc5)cccn4n3)cn2)CC1 [Example 128, 4-[[(1S,5R)-3-[2-[[1-[2-(4-methylpiperazin-1-yl)-2-oxo-ethyl]pyrazol-4-yl]amino]-[1,2,4]triazolo[1,5-a]pyridin-8-yl]-3-azabicyclo[3.2.1]octan-8-yl]oxymethyl]benzonitrile] | 1 | 0.4
21 | CN1CCN(C(=O)Cn2cc(Nc3nc4c(N5C[C@H]6CC[C@@H](C5)[C@H]6OCc5cccc(C#N)c5)cccn4n3)cn2)CC1 [Example 129, 3-[[(1S,5R)-3-[2-[[1-[2-(4-methylpiperazin-1-yl)-2-oxo-ethyl]pyrazol-4-yl]amino]-[1,2,4]triazolo[1,5-a]pyridin-8-yl]-3-azabicyclo[3.2.1]octan-8-yl]oxymethyl]benzonitrile] | 2.3 | 0.6
22 | CC(C)(C#N)CNC1CCN(C(=O)Cn2cc(Nc3nc4c(N5CC6CCC(C5)N6C(=O)N5CC(C(F)(F)F)C5)cccn4n3)cn2)CC1 [Example 131, 2,2-dimethyl-3-[[1-[2-[4-[[8-[8-[3-(trifluoromethyl)azetidine-1-carbonyl]-3,8-diazabicyclo[3.2.1]octan-3-yl]-[1,2,4]triazolo[1,5-a]pyridin-2-yl]amino]pyrazol-1-yl]acetyl]-4-piperidyl]amino]-propanenitrile] | 0.7 | 1.1
23 | CSc1ccccc1S(=O)(=O)N1C2CCC1CN(c1cccn3nc(Nc4cnn(CC(=O)N5CCN(C)CC5)c4)nc13)C2 [Example 132, 1-(4-methylpiperazin-1-yl)-2-[4-[[8-[8-(2-methylsulfanylphenyl)sulfonyl-3,8-diazabicyclo[3.2.1]octan-3-yl]-[1,2,4]triazolo[1,5-a]pyridin-2-yl]amino]pyrazol-1-yl]ethanone] | 0.4 | 0.4
